In data set [1] the test system is QT interval. Put plainly: FAM13A1 SNP genotypes and QT prolongation (QTcF) following administration of iloperidone. In kind it is in vivo, human. Here is the method:
(§1) Since the QT interval changes with changes in heart rate, the QT interval is often measured as a corrected QT (QTc) interval. Any number of formulas may be employed to calculate the QTc, including, for example, the Fridericia formula (QTcF), the Bazett formula (QTcB), and the Rautaharju formula (QTp), among others. In the studies described herein, QT was calculated using the Fridericia formula. However, the present invention includes the use of any such formula or method for calculating a QTc or an uncorrected QT.

For data set [2], the system named is QT interval. Put plainly: QT prolongation vs presence or absence of TT genotype at rs3775378 in 174 individuals given iloperidone. In kind it is in vivo, human. As to conditions: 24 mg/day B.I.D. oral, two weeks. Here is the method:
as §1, with “QT. Using the genotypes at the SNP loci above, it is possible, with a high degree of certainty, to predict an individual's predisposition to QT prolongation.” for “QT.”

`COc1cc(C(C)=O)ccc1OCCCN1CCC(c2noc3cc(F)ccc23)CC1` [iloperidone, 1-[4-[3-[4-(6-fluoro-1,2-benzisoxazol-3-yl)-1-piperidinyl]propoxy]-3-methoxyphenyl]ethanone]: the “Lowest QTc change (genotype)” value with QT interval [1] (SNP_A-1824897, rs10008568, allele A=A, B=G) is “nonAB”; in the data set on QT interval [1] (SNP_A-1906173, rs3775378, allele A=C, B=T), “non-BB”; in the data set on QT interval [1] (SNP_A-1943446, rs17014602, allele A=C, B=G), “non-AA”; with QT interval [1] (SNP_A-1977994, rs17014483, allele A=C, B=T), “non-BB”; in the data set on QT interval [1] (SNP_A-2152738, rs1458553, allele A=A, B=G) it was “nonAA”; in the data set on QT interval [1] (SNP_A-2190887, rs2609260, allele A=A, B=G), “nonAB”. For the same compound, the “Lowest QTc change (genotype)” value in the data set with QT interval [1] (SNP_A-4287986, rs2609265, allele A=C, B=T) is on record as “nonAB”; in the data set on QT interval [1] (SNP_A-4290819, rs17014687, allele A=C, B=T), “non-BB”; with QT interval [1] (SNP_A-4291320, rs2609264, allele A=C, B=T) it was “nonAB”; with QT interval [1] (SNP_A-4296194, rs12507401, allele A=C, B=G) it was “non-AA”. The “High QT, + test (number of individuals)” value is on record as 9 in the data set on QT interval [2] (Change threshold QT > 5 msec), 8 in the data set with QT interval [2] (Change threshold QT > 15 msec) and 6 with QT interval [2] (Change threshold QT > 30 msec). Also, the figures for the “High QT, − test (number of individuals)” value with QT interval [2] (Change threshold QT > 5 msec), with QT interval [2] (Change threshold QT > 15 msec) and in the data set with QT interval [2] (Change threshold QT > 30 msec) were 101, 59 and 22, respectively. The figures for the “Low QT, + test (number of individuals)” value in the data set on QT interval [2] (Change threshold QT > 5 msec), in the data set on QT interval [2] (Change threshold QT > 15 msec) and in the data set with QT interval [2] (Change threshold QT > 30 msec) were 0, 1 and 3, respectively. The entries for the “Low QT, − test (number of individuals)” value with QT interval [2] (Change threshold QT > 5 msec), with QT interval [2] (Change threshold QT > 15 msec) and in the data set on QT interval [2] (Change threshold QT > 30 msec) were 63, 105 and 142, respectively.

(Values after patent publication US9074255B2, “Method of predicting a predisposition to QT prolongation” (Vanda Pharmaceuticals, Inc., priority 2009, dated 2015).)
